Experimental data as given in patent US5302526A, “Recombinant DNA enclosed amphiphilic leader sequences for the production and purification of fusion proteins” (Creative BioMolecules, Inc., priority 1993, dated 1994).
Where two headings read alike, the source gives them in different places. Ends that are not written are not given here.

Test: HPLC partitioning of synthetic helix dimers between aqueous mobile phase and nonpolar C-18 stationary phase as a function of pH
Type: physicochemical
Procedure: To determine whether the properties of the synthetic helices corresponded to their expected properties, each was tested on an HPLC column using a nonpolar (C-18) stationary phase. A sample of synthetic peptide solution was then injected, and the elution time (time to emerge from the bottom of the column) measured. The void time for the column was measured by injecting a small charged molecule such as citrate or acetate. The fraction of the sample solubilized in the aqueous, mobile phase (versus that bound to the hydrophobic, immobile phase) is determined by the void time divided by the sample elution time. A sample emerging in the void time is completely soluble in the mobile phase, whereas if it emerges in two void times it is half solubilized in the mobile phase and half bound to the stationary phase. By this procedure the affinity of each of the synthetic peptides for the aqueous, mobile phase, relative to the hydrophobic, stationary phase, could be measured as a function of pH. The HPLC column was run isocratically (constant eluent) using one of several different buffer systems. […] For that reason a value of 13% was used for all the buffer systems in that at that concentration the elution time for the peptides was determined to be on the order of 2 to 20 times the void time. […] The column was allowed to equilibrate as judged by 214 nm absorbance baseline stability. […]

Sequence	fraction of the helix partitioned into the aqueous mobile phase (partition coefficient) as a function of pH (C-18 HPLC, isocratic, 13% acetonitrile, trend with increasing pH)	fraction of the helix partitioned into the aqueous mobile phase (partition coefficient) as a function of pH
AHNLNEAAHNLNEA [Helix P-81, (Ala--His--Asn--Leu--Asn--Glu--Ala)2]	fraction of the helix partitioning into the mobile phase increases as pH increases	
AKNLNEAAKNLNEA [Helix P-72, (Ala--Lys--Asn--Leu--Asn--Glu--Ala)2]		as the pH increased the peptide partitioned increasingly into the hydrophobic (stationary) phase
